Molecular target: EZH2 (Homo sapiens, UniProt Q15910)
Assay: EZH2 assay: rPRC2 with biotinylated oligonucleosome substrates and 3H SAM, FlashPlate scintillation counting, IC50
Assay type: biochemical
Conditions: rPRC2, biotinylated oligonucleosome substrates, 3H SAM; read-out: EZH2 IC50
Summary of the method: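 IC50 from 4-parameter fit, baselines fixed at 0 and 100%. Compounds (top 80 uM, 2-fold series to 0.16 uM) pre-incubated 20 min with 2 nM EZH2-PRC2; 60-min methylation in pH 8.5 Tris with 0.2 uM 3H SAM, 0.2 uM oligonucleosomes, 3.6 uM H3K27me3 peptide.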

Chain of EZH2 (Q15910 whole entry): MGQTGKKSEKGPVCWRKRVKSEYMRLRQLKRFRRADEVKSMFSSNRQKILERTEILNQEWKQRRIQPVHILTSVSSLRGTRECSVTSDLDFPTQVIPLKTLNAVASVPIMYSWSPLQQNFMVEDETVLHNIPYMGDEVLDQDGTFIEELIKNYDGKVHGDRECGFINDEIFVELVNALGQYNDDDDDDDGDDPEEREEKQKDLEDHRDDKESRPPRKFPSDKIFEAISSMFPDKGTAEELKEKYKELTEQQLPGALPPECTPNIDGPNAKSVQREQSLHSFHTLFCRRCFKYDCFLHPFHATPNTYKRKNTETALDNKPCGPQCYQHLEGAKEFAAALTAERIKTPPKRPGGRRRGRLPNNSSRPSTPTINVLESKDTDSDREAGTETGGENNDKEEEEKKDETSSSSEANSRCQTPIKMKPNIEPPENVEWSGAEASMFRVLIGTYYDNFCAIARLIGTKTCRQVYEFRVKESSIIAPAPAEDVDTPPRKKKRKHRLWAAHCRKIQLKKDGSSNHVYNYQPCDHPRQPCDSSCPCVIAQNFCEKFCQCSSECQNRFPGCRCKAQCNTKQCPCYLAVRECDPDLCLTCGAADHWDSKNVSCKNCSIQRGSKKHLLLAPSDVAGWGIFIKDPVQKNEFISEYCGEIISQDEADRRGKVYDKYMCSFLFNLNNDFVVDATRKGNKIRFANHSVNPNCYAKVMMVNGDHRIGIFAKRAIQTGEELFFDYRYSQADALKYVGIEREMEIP
Chain of EZH2 (O75530 whole entry partner): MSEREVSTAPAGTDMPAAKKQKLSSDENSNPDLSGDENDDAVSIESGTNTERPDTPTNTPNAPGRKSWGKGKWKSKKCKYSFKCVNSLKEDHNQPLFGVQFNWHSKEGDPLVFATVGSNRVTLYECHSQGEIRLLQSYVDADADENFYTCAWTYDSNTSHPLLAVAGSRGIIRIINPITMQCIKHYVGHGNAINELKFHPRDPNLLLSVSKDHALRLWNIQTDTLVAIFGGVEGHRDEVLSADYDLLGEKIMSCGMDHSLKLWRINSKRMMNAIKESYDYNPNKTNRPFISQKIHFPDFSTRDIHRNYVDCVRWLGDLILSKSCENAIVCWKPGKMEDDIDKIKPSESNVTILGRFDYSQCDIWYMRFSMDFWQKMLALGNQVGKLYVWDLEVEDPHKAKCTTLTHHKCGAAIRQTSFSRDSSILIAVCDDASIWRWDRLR
Chain of EZH2 (Q15022 whole entry partner): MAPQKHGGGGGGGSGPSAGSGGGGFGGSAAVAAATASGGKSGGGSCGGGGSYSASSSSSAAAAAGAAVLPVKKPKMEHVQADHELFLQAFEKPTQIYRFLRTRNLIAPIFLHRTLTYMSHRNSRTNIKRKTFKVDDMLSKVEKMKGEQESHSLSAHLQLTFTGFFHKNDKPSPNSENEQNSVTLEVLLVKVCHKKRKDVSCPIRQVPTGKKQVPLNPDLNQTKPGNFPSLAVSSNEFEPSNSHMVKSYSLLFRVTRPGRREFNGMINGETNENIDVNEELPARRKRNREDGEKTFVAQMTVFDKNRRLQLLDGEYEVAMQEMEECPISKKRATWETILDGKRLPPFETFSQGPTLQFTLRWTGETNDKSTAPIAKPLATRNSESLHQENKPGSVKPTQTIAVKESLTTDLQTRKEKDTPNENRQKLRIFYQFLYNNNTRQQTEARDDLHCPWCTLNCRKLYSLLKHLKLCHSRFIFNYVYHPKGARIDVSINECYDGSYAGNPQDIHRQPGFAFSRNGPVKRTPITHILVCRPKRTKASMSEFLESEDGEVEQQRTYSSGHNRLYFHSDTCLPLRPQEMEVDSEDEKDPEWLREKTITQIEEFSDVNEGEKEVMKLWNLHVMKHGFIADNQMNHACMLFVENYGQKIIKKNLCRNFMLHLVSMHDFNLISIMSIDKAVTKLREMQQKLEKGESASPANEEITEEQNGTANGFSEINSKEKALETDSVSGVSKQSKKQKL

SMILES | IC50 [µM]
N#Cc1ccccc1Oc1ccc(C(=O)NC2CCNCC2)cc1Cl [Compound I-178] | > 80
CC1(C)CC(NC(=O)c2ccc(OCc3ccccc3F)cc2)CC(C)(C)N1 [Compound I-90] | > 80
CC1(C)CC(NC(=O)c2ccc(Oc3ccccc3C3=CCNCC3)c(Cl)c2)CC(C)(C)N1 [Compound I-229] | 5 to 20
CC1(C)CC(NC(=O)c2ccc(COc3cccc(N4CCNCC4)c3)cc2)CC(C)(C)N1 [Compound I-165] | > 80
CC(C)c1ccc(C(=O)NC2CC(C)(C)NC(C)(C)C2)cc1 [Compound I-135] | > 80
CC1(C)CC(NC(=O)c2ccc(Oc3ncccc3F)cc2)CC(C)(C)N1 [Compound I-110] | > 80
CC1(C)CC(NC(=O)c2ccc(Oc3ccccc3Cl)cc2)CC(C)(C)N1 [Compound I-28] | 20 to 80
CC1(C)CC(NC(=O)c2ccc(Oc3ccccc3Br)cc2)CC(C)(C)N1 [Compound I-16] | 5 to 20
CC1(C)CC(NC(=O)c2ccc(COc3cccnc3)cc2)CC(C)(C)N1 [Compound I-36] | 20 to 80
O=C(NCCc1cccnc1)c1ccc(Oc2ccccc2)cc1 [Compound I-102] | > 80
Cc1cccc(C#N)c1Oc1ccc(C(=O)NC2CC(C)(C)NC(C)(C)C2)cc1 [Compound I-176] | 20 to 80
CC1(C)CC(NC(=O)c2ccc(COc3cccc(-c4ccc(NC(=O)C5CC5)nc4)c3)cc2)CC(C)(C)N1 [Compound I-153] | 20 to 80
CC1(C)CC(NC(=O)c2ccc(COc3cccc4cccnc34)cc2)CC(C)(C)N1 [Compound I-189] | 20 to 80
Cc1ccc(Oc2ccc(C(=O)NC3CC(C)(C)NC(C)(C)C3)cc2)c(C#N)c1 [Compound I-156] | > 80
COc1ccnc(Oc2ccc(C(=O)NC3CC(C)(C)NC(C)(C)C3)cc2)n1 [Compound I-109] | > 80
CCCc1cc(C(=O)NC2CC(C)(C)NC(C)(C)C2)ccc1Oc1ccccc1C#N [Compound I-198] | < 5

SMILES | IC50 [µM]
COc1ccccc1Oc1ccc(C(=O)NC2CC(C)(C)NC(C)(C)C2)cc1 [Compound I-57] | 20 to 80
CC1(C)CC(NC(=O)c2ccc(Oc3cccc(CN4CCCCC4)c3)cc2)CC(C)(C)N1 [Compound I-169] | 5 to 20
CC1(C)CC(NC(=O)c2ccc(COc3cccnc3Cl)cc2)CC(C)(C)N1 [Compound I-77] | > 80
CC1(C)CC(NC(=O)c2ccc(Oc3ccccc3OCc3ccncc3)cc2)CC(C)(C)N1 [Compound I-209] | 5 to 20
CC1(C)CC(NC(=O)c2ccc(Oc3ccccc3C#N)c(C(F)(F)F)c2)CC(C)(C)N1 [Compound I-218] | < 5
CC1(C)CC(NC(=O)c2ccc(Oc3cccc(Br)c3)cc2)CC(C)(C)N1 [Compound I-180] | 20 to 80
CC1(C)CC(NC(=O)c2ccc(Oc3ccccc3)cc2Cl)CC(C)(C)N1 [Compound I-175] | > 80
CC1(C)CC(NC(=O)c2ccc(Oc3ccccc3)c(Br)c2)CC(C)(C)N1 [Compound I-144] | 5 to 20
CC1(C)CC(NC(=O)c2ccc(Oc3ccccc3)c(F)c2)CC(C)(C)N1 [Compound I-148] | 5 to 20
Cc1cc(C)cc(OCc2ccc(C(=O)NC3CC(C)(C)NC(C)(C)C3)cc2)c1 [Compound I-9] | 5 to 20
CC1(C)CC(NC(=O)c2ccc(COc3cccc(-c4cc[nH]c(=O)c4)c3)cc2)CC(C)(C)N1 [Compound I-11] | 5 to 20
Cc1ncccc1Oc1ccc(C(=O)NC2CC(C)(C)NC(C)(C)C2)cc1 [Compound I-20] | 5 to 20
CC1(C)CC(NC(=O)c2ccc(-c3ccccc3)cc2)CC(C)(C)N1 [Compound I-61] | 20 to 80
Cc1cc(C)cc(OCc2cccc(C(=O)NC3CC(C)(C)NC(C)(C)C3)c2)c1 [Compound I-115] | > 80
CC1(C)CC(NC(=O)c2ccc(Oc3ccccc3N3CCOCC3)cc2)CC(C)(C)N1 [Compound I-44] | 20 to 80

Other lines, results leading:

IC50 [µM] | SMILES
< 5 | CC(C)c1cc(C(=O)NC2CC(C)(C)NC(C)(C)C2)ccc1Oc1ccccc1C#N [Compound I-237]
> 80 | CC1(C)CC(NC(=O)N2CCC(Oc3ccccc3C#N)CC2)CC(C)(C)N1 [Compound I-442]
< 5 | Cc1ccncc1-c1cccc(Oc2ccc(C(=O)NC3CC(C)(C)NC(C)(C)C3)cc2Cl)c1C#N [Compound I-365]
> 80 | CC1(C)CC(NC(=O)c2ccc(OC3CCNCC3)c(Cl)c2)CC(C)(C)N1 [Compound I-382]
5 to 20 | CC1(C)CC(NC(=O)c2ccc(Oc3ccccc3OCc3ccccn3)cc2)CC(C)(C)N1 [Compound I-231]
< 5 | CC1(C)CC(NC(=O)c2ccc(Oc3ccccc3-c3cncnc3)c(Cl)c2)CC(C)(C)N1 [Compound I-279]
20 to 80 | CC1(C)CC(NC(=O)c2ccc(Oc3ccccc3)c(OCc3ccccc3)c2)CC(C)(C)N1 [Compound I-269]
5 to 20 | Cc1cc(C(=O)NC2CC(C)(C)NC(C)(C)C2)ccc1Oc1ccccc1C(C)C [Compound I-332]
< 5 | CN1CCN(c2ccc(-c3cccc(Oc4ccc(C(=O)NC5CC(C)(C)NC(C)(C)C5)cc4Cl)c3C#N)cn2)CC1 [Compound I-550]
< 5 | CC1(C)CC(NC(=O)c2ccc(Oc3ccccc3C#N)c3ccccc23)CC(C)(C)N1 [Compound I-270]
> 80 | CC1(C)CC(NC(=O)c2ccc(Oc3ccccc3-c3nn[nH]n3)c(Br)c2)CC(C)(C)N1 [Compound I-282]
20 to 80 | Cc1cc(Oc2ccccc2C#N)ccc1C(=O)NC1CC(C)(C)NC(C)(C)C1 [Compound I-243]
> 80 | CC1(C)CC(NC(=O)c2ccc(Oc3ccccc3-c3nn[nH]n3)c(Cl)c2)CC(C)(C)N1 [Compound I-313]
> 80 | CC1(C)CC(NC(=O)c2ccc(OC3CCCNC3)c(Cl)c2)CC(C)(C)N1 (stereo not drawn) [Compound I-393]
< 5 | Cc1cc(C(=O)NC2CC(C)(C)NC(C)(C)C2)ccc1Oc1cccc(C(C)C)c1C#N [Compound I-267]
< 5 | CC1(C)CC(NC(=O)c2ccc(Oc3ccccc3C#N)c(Cl)c2)CC(C)(C)N1CCO [Compound I-459]
< 5 | CNC(=O)CCc1cccc(Oc2ccc(C(=O)NC3CC(C)(C)NC(C)(C)C3)cc2Cl)c1C#N [Compound I-551]
> 80 | N#Cc1c(Br)cccc1Oc1ccc(C(=O)NC2CCNCC2)cc1Cl [Compound I-407]
> 80 | CC1(C)CC(NC(=O)c2ccc(Oc3cccc(CN4CCOCC4)c3)cc2)CC(C)(C)N1 [Compound I-234]

IC50 [µM] | SMILES
< 5 | CC1(C)CC(NC(=O)c2ccc(Oc3ccccc3-c3ccsc3)c(Cl)c2)CC(C)(C)N1 [Compound I-252]
5 to 20 | CC1(C)CC(NC(=O)c2ccc(Oc3cccc4c(Cl)nccc34)cc2)CC(C)(C)N1 [Compound I-314]
20 to 80 | CC1(C)CC(C)(NC(=O)c2ccc(Oc3cccc(-c4ccnnc4)c3C#N)c(Cl)c2)CC(C)(C)N1 [Compound I-507]
> 80 | N#CCN1CCC(NC(=O)c2ccc(Oc3cccc(-c4ccnnc4)c3C#N)c(Cl)c2)CC1 [Compound I-475]
20 to 80 | CC1(C)CC(NC(=O)c2ccc(Sc3ccccc3)c(Cl)c2)CC(C)(C)N1 [Compound I-300]
20 to 80 | CC1(C)CC(NC(=O)c2ccc(Oc3ccccc3C#N)c(Cl)c2)CC(c2ccccc2)N1 (stereo not drawn) [Compound I-409]
> 80 | N#Cc1c(Oc2ccc(C(=O)NC3CCNCC3)cc2Cl)cccc1-c1cn[nH]c1 [Compound I-373]
> 80 | CC1(C)CC(NC(=O)c2ccc(Oc3ccccc3C#N)c(Cl)c2)CC(C(=O)O)N1 (stereo not drawn) [Compound I-419]
> 80 | CCN(C(=O)c1ccc(Oc2ccccc2C#N)c(Cl)c1)C1CC(C)(C)NC(C)(C)C1 [Compound I-341]
5 to 20 | CC1(C)CC(NC(=O)c2ccc(Oc3cccc4cccnc34)c(Cl)c2)CC(C)(C)N1 [Compound I-346]
5 to 20 | CCN1C(C)(C)CC(NC(=O)c2ccc(Oc3ccccc3C#N)c(Cl)c2)CC1(C)C [Compound I-276]
> 80 | CC1(C)CC(NC(=O)c2ccc(OC[C@@H]3CCCN3)c(Cl)c2)CC(C)(C)N1 [Compound I-410]
5 to 20 | CC1(C)CC(NC(=O)c2ccc(Oc3cccc(-c4cccnc4N)c3C#N)c(Cl)c2)CC(C)(C)N1 [Compound I-361]
< 5 | COc1cc(-c2cccc(Oc3ccc(C(=O)NC4CC(C)(C)NC(C)(C)C4)cc3Cl)c2C#N)ccn1 [Compound I-500]
< 5 | CC1(C)CC(NC(=O)c2ccc(Oc3cccc(NCC(N)=O)c3C#N)c(Cl)c2)CC(C)(C)N1 [Compound I-502]
5 to 20 | CC(O)c1ccccc1Oc1ccc(C(=O)NC2CC(C)(C)NC(C)(C)C2)cc1Cl (stereo not drawn) [Compound I-455]
< 5 | CC1(C)CC(NC(=O)c2ccc(Oc3cccc(-c4ccc(C#N)nc4)c3C#N)c(Cl)c2)CC(C)(C)N1 [Compound I-526]
< 5 | CN1C(C)(C)CC(NC(=O)c2ccc(Oc3ccccc3C#N)c(Cl)c2)CC1(C)C [Compound I-289]
5 to 20 | CC1(C)CC(NC(=O)c2ccc(Oc3ccccc3C(N)=O)c(Cl)c2)CC(C)(C)N1 [Compound I-284]
